pIC50: −log10 of the molar value.
Target: [35S]-TBPS binding, rat brain cortical membranes
Experiment: Steroid inhibition of [35S]-TBPS binding
Conditions: 3 nM [35S]-TBPS, in the presence of 5 mM GABA
Summary of the method: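 In the presence of […], compounds (DMSO 0.5% final) competed with 3 nM [35S]-TBPS for Sprague-Dawley rat cortical membranes, pH 7.4 phosphate buffer, 90 min, room temperature. Filtration and scintillation counting; specific binding defined by […]; IC50 and maximal inhibition fitted per experiment, averaged as mean ± SEM.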

Structure (SMILES)	pIC50
C[C@@]1(O)CC[C@H]2[C@H](CC[C@@H]3[C@@H]2CC[C@]2(C)[C@@H](CN4C[C@H](c5ccccc5)CC4=O)CC[C@@H]32)C1 [Example 10, (S)-1-(((3R,5R,8R,9R,10S,13S,14S,17S)-3-hydroxy-3,13-dimethylhexadecahydro-1H-cyclopenta[a]phenanthren-17-yl)methyl)-4-phenylpyrrolidin-2-one]	6.00 to 7.00
CCOC[C@@]1(O)CC[C@H]2[C@H](CC[C@@H]3[C@@H]2CC[C@]2(C)[C@@H]([C@H](C)Cn4nnc(C)n4)CC[C@@H]32)C1 [Example 289, (3R,5R,8R,9R,10S,13S,14S,17R)-3-(ethoxymethyl)-13-methyl-17-((S)-1-(5-methyl-2H-tetrazol-2-yl)propan-2-yl)hexadecahydro-1H-cyclopenta[a]phenanthren-3-ol]	> 7.00
C[C@H](NC(=O)c1ccccn1)[C@H]1CC[C@H]2[C@@H]3CC[C@@H]4C[C@](C)(O)CC[C@@H]4[C@H]3CC[C@]12C [Example 101]	5.00 to 6.00
C[C@@H]([C@H]1CC[C@H]2[C@@H]3CC[C@@H]4C[C@](C)(O)CC[C@@H]4[C@H]3CC[C@]12C)N(C)C(=O)c1ccccc1 [Example 19, N—((S)-1-((3R,5R,8R,9R,10S,13S,14S,17S)-3-hydroxy-3,13-dimethylhexadecahydro-1H-cyclopenta[a]phenanthren-17-yl)ethyl)-N-methylbenzamide]	5.00 to 6.00
COC[C@@]1(O)CC[C@H]2[C@H](CC[C@@H]3[C@@H]2CC[C@]2(C)[C@@H](CCn4ccc(C#N)n4)CC[C@@H]32)C1 [Example 87, 1-(2-((3R,5R,8R,9R,10S,13R,14S,17R)-3-hydroxy-3-(methoxymethyl)-13-methylhexadecahydro-1H-cyclopenta[a]phenanthren-17-yl)ethyl)-1H-pyrazole-3-carbonitrile]	> 7.00
COC[C@@]1(O)CC[C@H]2[C@H](CC[C@@H]3[C@@H]2CC[C@]2(C)[C@@H]([C@@H](C)NC(=O)c4ccc(F)cn4)CC[C@@H]32)C1 [Example 125]	6.00 to 7.00
COc1cccc(C(=O)N[C@@H](C)[C@H]2CC[C@H]3[C@@H]4CC[C@@H]5C[C@](C)(O)CC[C@@H]5[C@H]4CC[C@]23C)c1 [Example 105]	5.00 to 6.00
CC[C@@]1(O)CC[C@H]2[C@@H](CC[C@@H]3[C@@H]2CC[C@]2(C)[C@@H]([C@H](C)Cn4nnc(C)n4)CC[C@@H]32)C1 [Example 334, (3R,5S,8R,9R,10S,13S,14S,17R)-3-ethyl-13-methyl-17-((S)-1-(5-methyl-2H-tetrazol-2-yl)propan-2-yl)hexadecahydro-1H-cyclopenta[a]phenanthren-3-ol]	≤ 5.00
CCC[C@@]1(O)CC[C@H]2[C@H](CC[C@@H]3[C@@H]2CC[C@@]2(C)[C@H]3CC[C@]2(O)[C@H](C)Cn2cc(C#N)cn2)C1 [Example 348, 1-((R)-2-((3R,5R,8R,9R,10S,13S,14S,17S)-3,17-dihydroxy-13-methyl-3-propylhexadecahydro-1H-cyclopenta[a]phenanthren-17-yl)propyl)-1H-pyrazole-4-carbonitrile]	5.00 to 6.00
COC[C@@]1(O)CC[C@H]2[C@H](CC[C@@H]3[C@@H]2CC[C@@]2(C)[C@H]3CC[C@]2(O)[C@H](C)Cn2cc(C#N)cn2)C1 [Example 353]	5.00 to 6.00
C[C@@]1(O)CC[C@H]2[C@H](CC[C@@H]3[C@@H]2CC[C@]2(C)[C@@H](CN4CCCCC4=O)CC[C@@H]32)C1 [Example 1, 1-(((3R,5R,8R,9R,10S,13S,14S,17S)-3-hydroxy-3,13-dimethylhexadecahydro-1H-cyclopenta[a]phenanthren-17-yl)methyl)piperidin-2-one]	5.00 to 6.00
CCOC[C@@]1(O)CC[C@H]2[C@H](CC[C@@H]3[C@@H]2CC[C@]2(C)[C@@H]([C@@H](C)NS(=O)(=O)c4cccc(C#N)c4)CC[C@@H]32)C1 [Example 69]	> 7.00
CC[C@]12CC[C@@](C)(O)C[C@H]1CC[C@H]1[C@@H]3CC[C@H](C(C)Cn4cc(C#N)cn4)[C@@]3(C)CC[C@@H]12 (stereo in doubt) [Example 326, 1-((R)-2-((3R,5R,8S,9S,10S,13S,14S,17R)-10-ethyl-3-hydroxy-3,13-dimethylhexadecahydro-1H-cyclopenta[a]phenanthren-17-yl)propyl)-1H-pyrazole-4-carbonitrile]	> 7.00
C[C@H](Cc1ccc(C(F)(F)F)nc1)[C@H]1CC[C@H]2[C@@H]3CC[C@@H]4C[C@](C)(O)CC[C@@H]4[C@H]3CC[C@]12C [Example 444]	6.00 to 7.00
COC[C@@]1(O)CC[C@H]2[C@H](CC[C@@H]3[C@@H]2CC[C@]2(C)[C@@H]([C@@H](C)NC(=O)c4ccc(F)cc4)CC[C@@H]32)C1 [Example 113]	6.00 to 7.00
CN(C[C@H]1CC[C@H]2[C@@H]3CC[C@@H]4C[C@](C)(O)CC[C@@H]4[C@H]3CC[C@]12C)C(=O)c1ccccc1 [Example 2, N-(((3R,5R,8R,9R,10S,13S,14S,17S)-3-hydroxy-3,13-dimethylhexadecahydro-1H-cyclopenta[a]phenanthren-17-yl)methyl)-N-methylbenzamide]	6.00 to 7.00
CCOC[C@@]1(O)CC[C@H]2[C@H](CC[C@@H]3[C@@H]2CC[C@]2(C)[C@@H]([C@@H](C)NC(=O)c4ccc(C#N)cc4F)CC[C@@H]32)C1 [Example 133]	> 7.00
CCOC[C@@]1(O)CC[C@H]2[C@H](CC[C@@H]3[C@@H]2CC[C@]2(C)[C@@H]([C@H](C)Cn4nccn4)CC[C@@H]32)C1 [Example 265, (3R,5R,8R,9R,10S,13S,14S,17R)-17-((S)-1-(2H-1,2,3-triazol-2-yl)propan-2-yl)-3-(ethoxymethyl)-13-methylhexadecahydro-1H-cyclopenta[a]phenanthren-3-ol]	6.00 to 7.00
CCOC[C@@]1(O)CC[C@H]2[C@H](CC[C@@H]3[C@@H]2CC[C@]2(C)[C@@H]([C@H](C)Cc4cccc(C#N)c4)CC[C@@H]32)C1 [Example 403, 3-((R)-2-((3R,5R,8R,9R,10S,13R,14S,17R)-3-(ethoxymethyl)-3-hydroxy-13-methylhexadecahydro-1H-cyclopenta[a]phenanthren-17-yl)propyl)benzonitrile]	6.00 to 7.00
CC(C)[C@@]1(O)CC[C@H]2[C@H](CC[C@@H]3[C@@H]2CC[C@]2(C)[C@@H]([C@@H](C)Cn4cc(C#N)cn4)CC[C@@H]32)C1 [Example 343, 1-((R)-2-((3R,5R,8R,9R,10S,13S,14S,17R)-3-hydroxy-3-isopropyl-13-methylhexadecahydro-1H-cyclopenta[a]phenanthren-17-yl)propyl)-1H-pyrazole-4-carbonitrile]	6.00 to 7.00
CC[C@@]1(O)CC[C@H]2[C@H](CC[C@@H]3[C@@H]2CC[C@]2(C)[C@@H]([C@@H](C)Nc4ccc(C#N)nc4)CC[C@@H]32)C1 [Example 491, 5-(((R)-1-((3R,5R,8R,9R,10S,13S,14S,17S)-3-ethyl-3-hydroxy-13-methylhexadecahydro-1H-cyclopenta[a]phenanthren-17-yl)ethyl)amino)picolinonitrile]	6.00 to 7.00
COC[C@@]1(O)CC[C@H]2[C@H](CC[C@@H]3[C@@H]2CC[C@]2(C)[C@@H]([C@H](C)n4ncc(C#N)c4N)CC[C@@H]32)C1 [Example 153, 5-amino-1-((S)-1-((3R,5R,8R,9R,10S,13S,14S,17S)-3-hydroxy-3-(methoxymethyl)-13-methylhexadecahydro-1H-cyclopenta[a]phenanthren-17-yl)ethyl)-1H-pyrazole-4-carbonitrile]	5.00 to 6.00
CCOC(=O)c1cnc(C[C@H](C)[C@H]2CC[C@H]3[C@@H]4CC[C@H]5C[C@](C)(O)CC[C@@H]5[C@H]4CC[C@]23C)o1 (stereo in doubt) [Example 455]	> 7.00
C[C@@H](Cc1ccc(C(F)(F)F)nc1)[C@H]1CC[C@H]2[C@@H]3CC[C@@H]4C[C@](C)(O)CC[C@]4(C)[C@H]3CC[C@]12C [Example 427]	> 7.00
CCC[C@@]1(O)CC[C@@]2(CC)[C@H](CC[C@H]3[C@@H]4CC[C@H]([C@H](C)Cn5cc(C#N)cn5)[C@@]4(C)CC[C@@H]32)C1 [Example 302, 1-((S)-2-((3R,5R,8S,9S,10S,13S,14S,17R)-10-ethyl-3-hydroxy-13-methyl-3-propylhexadecahydro-1H-cyclopenta[a]phenanthren-17-yl)propyl)-1H-pyrazole-4-carbonitrile]	> 7.00
COC[C@@]1(O)CC[C@@]2(C)[C@H](CC[C@@H]3[C@@H]2[C@@H](O)C[C@]2(C)[C@@H]([C@@H](C)Cn4cc(C#N)cn4)CC[C@@H]32)C1 [Example 327, 1-((R)-2-((3R,5R,8S,9S,10S,11S,13S,14S,17R)-3,11-dihydroxy-3-(methoxymethyl)-10,13-dimethylhexadecahydro-1H-cyclopenta[a]phenanthren-17-yl)propyl)-1H-pyrazole-4-carbonitrile]	6.00 to 7.00
C[C@H](NC(=O)c1ccccc1)[C@H]1CC[C@H]2[C@@H]3CC[C@@H]4C[C@](C)(O)CC[C@@H]4[C@H]3CC[C@]12C [Example 23, N—((S)-1-((3R,5R,8R,9R,10S,13S,14S,17S)-3-hydroxy-3,13-dimethylhexadecahydro-1H-cyclopenta[a]phenanthren-17-yl)ethyl)benzamide]	5.00 to 6.00

Reference: patent US20230322846A9, “NEUROACTIVE STEROIDS AND THEIR METHODS OF USE” (SAGE THERAPEUTICS, INC., priority 2018, published 2023)
